Results published in patent publication EP1242382B1, “TRICYCLIC PROTEIN KINASE INHIBITORS” (Wyeth, priority 1999, dated 2001).

The molecules below were run against T1, Raf-1 (c-Raf) (Homo sapiens, UniProt P04049) (assay: Raf1 kinase cascade assay procedure). Conditions: not given.
T1 construct: Sf9 insect cell lysate containing full length 6his-tagged recombinant human c-Raf; host or cells: c-Raf: Sf9 insect cell lysate; MEK1 and MAPK: E. coli
Type: biochemical
Description: (Specific Activity: ~200U/ml). Human Non-active Mek-1-GST and human GST-MAP kinase (recombinant proteins produced in E. coli).
• 1. Assay Dilution Buffer (ADB): 20mM MOPS, pH 7.2, 25mM β-glycerol phosphate, 5mM EGTA, 1mM sodium orthovanadate, 1mM dithiothreitol. • 2. Magnesium/ATP Cocktail: 500µM cold ATP and 75 mM magnesium chloride in ADB. • 4. Active Kinase: Human Active c-Raf: Use at 0.4U per assay point • 5. Non-active GST-MEK1: Use at 0.1µg per assay point. • 6. Non-active GST-p42 MAP Kinase: Use at 1.0 µg per assay point
• 1. TBST - Tris (50 mM, pH 7.5), NaCl (150 mM), Tween-20 (0.05 %) • 2. Superblock (Pierce) • 3. Anti-GST Ab (Pharmacia) • 4. Anti-Phospho MAPK (Sigma) • 5. Anti-Mouse Ab / Europium conjugate (Wallac)
First Stage: c-Raf Dependent Activation of GST-MEK and GST-MAPK • 1. Add […] of ADB per assay (i.e. per well of a 96 well plate) • 2. Add 10 ml of 0.5 mM cold ATP and 75 mM magnesium chloride in ADB. • 3. Add 2 ml of c-Raf (0.4U/assay), in conjunction with 1.6ml non-active MEK1 ([…]). • 4. Add 4 ml of non-active GST-p42 MAP Kinase (1.0 mg/assay). • 5. Incubate for 60 minutes at 30°C in a shaking incubator. • 6. Transfer this mixture to an anti-GST Ab coated 96 well plate (Nunc Immunosorb plates coated o/n with a-GST, then blocked with Pierce Superblock). • 7. Incubate for 60 minutes at 30°C in a shaking incubator Wash 3X with TBST, add Anti-Phospho MAPK (Sigma) (1:3000) • 6. Incubate for 60 minutes at 30°C in a shaking incubator • 7. Wash 3X with TBST, add Anti-Mouse Ab / Europium conjugate (Wallac) (1:500) • 8. Incubate for 60 minutes at 30°C in a shaking incubator • 9. Wash 3X with TBST, Read plates in Wallac Victor model Plate Reader. • 10. Collect data analyze in Excel for single point and IC50 determinations.
Typically Raf-1 assay is run at compound concentrations from 10 µM to 1 nM in half log dilutions. (% inhibition is determined for each compound concentration).

T1 sequence (P04049 whole entry): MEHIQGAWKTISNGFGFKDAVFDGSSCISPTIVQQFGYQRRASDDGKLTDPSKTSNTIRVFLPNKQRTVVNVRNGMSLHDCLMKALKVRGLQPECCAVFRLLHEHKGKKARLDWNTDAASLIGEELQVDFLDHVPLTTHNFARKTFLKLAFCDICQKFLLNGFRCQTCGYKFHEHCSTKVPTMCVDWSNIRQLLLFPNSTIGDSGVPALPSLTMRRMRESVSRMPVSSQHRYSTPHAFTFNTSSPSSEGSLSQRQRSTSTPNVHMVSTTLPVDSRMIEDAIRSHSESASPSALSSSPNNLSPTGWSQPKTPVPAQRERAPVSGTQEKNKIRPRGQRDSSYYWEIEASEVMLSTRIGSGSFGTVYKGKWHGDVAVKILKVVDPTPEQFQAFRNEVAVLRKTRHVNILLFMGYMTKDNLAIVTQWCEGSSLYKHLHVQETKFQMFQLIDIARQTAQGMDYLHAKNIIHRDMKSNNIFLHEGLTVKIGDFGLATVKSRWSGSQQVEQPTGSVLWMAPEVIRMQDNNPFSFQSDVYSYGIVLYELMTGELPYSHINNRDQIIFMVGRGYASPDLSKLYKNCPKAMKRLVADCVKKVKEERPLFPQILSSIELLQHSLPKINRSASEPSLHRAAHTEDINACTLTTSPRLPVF

Going from `N#Cc1cnc2cc3ccccc3cc2c1Nc1ccc(Oc2ccccc2)cc1` [Example 3, 4-(4-Phenoxyanilino)benzo[g]quinoline-3-carbonitrile] to `COc1cc(Nc2c(C#N)cnc3cc4cc(OCCN5CCOCC5)c(OC)cc4cc23)c(Cl)cc1Cl` [Example 129, 4-(2,4-dichloro-5-methoxyanilino)-7-methoxy-8-[2-(4-morpholinyl)ethoxy]benzo[g]quinoline-3-carbonitrile], the IC50 rises from 90 nM to 300 nM (3.3-fold). The first is the more potent here.

What follows are molecules tested against T2, p60^c-src (Src) (Homo sapiens, UniProt P12931) (assay: Src kinase test procedure (Elisa format)). Conditions: dose 0.1 µM; read-out: Src %Inh.
T2 construct: purchased Upstate Biotechnologies
Type: biochemical
Description: Inhibitors of p60^c-src (partially purified preparation purchased from Upstate Biotechnologies) tyrosine kinase activity are analyzed in an Elisa format. […] HRP-conjugated anti-phosphotyrosine is used to detect phosphorylated peptide via a color reaction. Conditions recommended by the manufacturer are employed.
Reaction conditions: Five microliter aliquots of each compound prepared fresh at the time of the assay are added as a solution in 10mM HEPES pH 7.5, 10% DMSO to the reaction well. Thirty-five microliters of reaction mix containing Src, buffer and peptide/bovine serum albumin mix are added to the compound wells and incubated at 30°C for 10 minutes (reaction buffer: 50mM TrisHCl pH 7.5, 10mM MgCl2, 0.1mM EGTA, 0.5mM Na3VO4). The reaction is started by addition of 10 microliters of ATP, incubated at 30°C for 1 hour, and stopped by addition of 20 microliters of 0.5M EDTA. The reaction mixture with the phosphorylated peptide is then transferred to a streptavidin-coated microtiter plate (provided in the kit) and allowed to bind for 20 minutes. Unbound peptide and reaction mixture is decanted and the plate is washed with PBS six times. Horseradish peroxidase-conjugated phosphotyrosine antibody supplied in the kit is incubated with the plate for one hour, then decanted. The plate is again washed with PBS six times.

T2 sequence (P12931 whole entry): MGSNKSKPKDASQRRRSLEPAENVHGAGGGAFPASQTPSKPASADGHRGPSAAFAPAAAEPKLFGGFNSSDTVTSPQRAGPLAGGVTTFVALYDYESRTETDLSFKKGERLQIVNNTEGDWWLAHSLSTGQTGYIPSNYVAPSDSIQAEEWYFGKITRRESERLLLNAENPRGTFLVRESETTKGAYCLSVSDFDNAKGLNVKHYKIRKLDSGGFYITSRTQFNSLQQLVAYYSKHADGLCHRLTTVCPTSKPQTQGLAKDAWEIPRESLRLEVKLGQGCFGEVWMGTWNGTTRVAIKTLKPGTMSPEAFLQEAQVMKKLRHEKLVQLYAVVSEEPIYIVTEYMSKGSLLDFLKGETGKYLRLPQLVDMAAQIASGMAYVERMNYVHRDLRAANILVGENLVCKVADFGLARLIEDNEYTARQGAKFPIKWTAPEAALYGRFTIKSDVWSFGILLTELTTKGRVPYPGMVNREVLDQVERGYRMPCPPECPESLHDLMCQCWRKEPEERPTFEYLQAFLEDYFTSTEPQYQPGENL

`COc1ccc2cc3ncc(C#N)c(Nc4ccc(Cl)cc4Cl)c3cc2c1` [Example 103, 4-(2,4-Dichloroanilino)-7-methoxybenzo[g]quinoline-3-carbonitrile] and `COc1ccc2cc3c(Nc4ccc(Cl)cc4Cl)c(C#N)cnc3cc2c1` [Example 104, 4-(2,4-dichloroanilino)-8-methoxybenzo[g]quinoline-3-carbonitrile] are the same in inhibition at 0.1 µM: 30% for the first, 30% for the second.

`COc1cc(Nc2c(C#N)cnc3nc4cc(OCCN5CCOCC5)c(OC)cc4cc23)c(Cl)cc1Cl` [Example 173, 4-(2,4-Dichloro-5-methoxyanilino)-7-methoxy-8-[2-(4-morpholinyl)ethoxy]benzo[b][1,8]naphthyridine-3-carbonitrile] gave an inhibition at 0.1 µM of 33%.

Same assay, conditions: dose 5 µM; read-out: Src %Inh

`COc1cc2cc3c(Nc4ccc(Cl)cc4Cl)c(C#N)cnc3nc2cc1OC` [Example 177, 4-(2,4-Dichloroanilino)-7,8-dimethoxybenzo[b] [1,8]naphthyridine-3-carbonitrile] showed an inhibition at 5 µM of 30%.

Same assay, conditions: dose 10 µM

In the case of `N#Cc1cnc2c(oc3ccccc32)c1Nc1ccc(Cl)cc1F` [Example 86, 4-(4-Chloro-2-fluorophenylamino)benzo[4,5]furo[3,2-b]pyridine-3-carbonitrile], the “Src %Inh” value is reported as 46%.

Same assay, conditions: dose 10 µM; read-out: Src %Inh

First: COc1cc(Nc2c(C#N)cnc3c2sc2ccc([N+](=O)[O-])cc23)c(C)cc1Cl [Example 75, 4-(4-Chloro-5-methoxy-2-methylphenylamino)-8-nitrobenzo[4,5]thieno[3,2-b]pyridine-3-carbonitrile]
Second: N#Cc1cnc2c(oc3ccccc32)c1Nc1ccc(Cl)cc1F [Example 86, 4-(4-Chloro-2-fluorophenylamino)benzo[4,5]furo[3,2-b]pyridine-3-carbonitrile]
The inhibition at 10 µM of the first is lower: 0% for the first, 54% for the second.

Each molecule was assayed on Rat2 fibroblasts stably transformed with v-Src/Hu c-Src fusion gene (assay: Anchorage independent Src-transformed fibroblast proliferation test procedure). Conditions: Rattus norvegicus, @ dose 10 µM, read-out: Src TF prolif %Inh.
Type: cell-based
Source text: Anchorage Independent Src-transformed Fibroblast Proliferation Test Procedure: Rat2 fibroblasts stably transformed with a plasmid containing a CMV promotor controlled v-Src/Hu c-Src fusion gene in which the catalytic domain of human c-Src is inserted in place of the v-Src catalytic domain in the v-Src gene are used for the measurement of src dependent suspension growth.

For `COc1cc(Nc2c(C#N)cnc3cc4c(cc23)ncn4CCN2CCOCC2)c(C)cc1Cl` [Example 57, 8-(4-Chloro-5-methoxy-2-methylanilino)-3-[2-(4-morpholinyl)ethyl]-3H-imidazo[4,5-g]quinline-7-carbonitrile], the inhibition at 10 µM was 0%.

Same assay, conditions: Rattus norvegicus, the 3rd table c6, (a)-(d) = average of two to five runs, read-out: Src TF prolif IC50

First: COc1cc(Nc2c(C#N)cnc3cc4cc(OC)c(OCCN5CCC(O)CC5)cc4cc23)c(Cl)cc1C [Example 207, 4-(2-Chloro-5-methoxy-4-methylanilino)-8-methoxy-7-[2-(4-hydroxy-1-piperidinyl)ethoxy]benzo[g]quinoline-3-carbonitrile]
Second: COc1cc(Nc2c(C#N)cnc3cc4cc(OC)c(OCCN5CCN(C)CC5)cc4cc23)c(Cl)cc1C [Example 202, 4-(2-Chloro-5-methoxy-4-methylanilino)-8-methoxy-7-[2-(4-methyl-1-piperazinyl)ethoxy]benzo[g]quinoline-3-carbonitrile]
The IC50 of the first is 14-fold higher: 929 nM for the first, 68 nM for the second. The second is the more potent here.

Compared with `COc1cc(Nc2c(C#N)cnc3nc4cc(OCCCl)c(OC)cc4cc23)c(Cl)cc1Cl` [Example 172, 8-(2-Chloroethoxy)-4-(2,4-dichloro-5-methoxyanilino)-7-methoxybenzo[b][1,8]naphthyridine-3-carbonitrile], `COc1cc(Nc2c(C#N)cnc3nc4cc(OC)c(OC)cc4cc23)c(Cl)cc1Cl` [Example 165, 4-(2,4-Dichloro-5-methoxyanilino)-7,8-dimethoxybenzo[b] [1,8]naphthyridine-3-carbonitrile] is higher in IC50: 1880 nM for the first, greater than 10000 nM for the second.

Compared with `COc1cc(Nc2c(C#N)cnc3cc4cc(OC)c(OCCN5CCOCC5)cc4cc23)c(Cl)cc1F` [Example 209, 4-(2-Chloro-4-fluoro-5-methoxyanilino)-8-methoxy-7-[2-(4-morpholinyl)ethoxy]benzo[g]quinoline-3-carbonitrile], `COc1cc(Nc2c(C#N)cnc3cc4cc(OCCCN5CCOCC5)c(OC)cc4cc23)c(Cl)cc1Cl` [Example 157, 4-(2,4-dichloro-5-methoxyphenylamino)-7-methoxy-8-(3-morpholin-4-yl-propoxy)benzo[g]quinoline-3-carbonitrile] is 8.1-fold lower in IC50: 309 nM for the first, 38 nM for the second.

First: COc1cc(Nc2c(C#N)cnc3nc4cc(OCCN5CCOCC5)c(OC)cc4cc23)c(Cl)cc1Cl [Example 173, 4-(2,4-Dichloro-5-methoxyanilino)-7-methoxy-8-[2-(4-morpholinyl)ethoxy]benzo[b][1,8]naphthyridine-3-carbonitrile]
Second: CCOc1cc2cc3ncc(C#N)c(Nc4cc(OC)c(Cl)cc4C)c3cc2cc1OCCN1CCOCC1 [Example 190, 4-(4-Chloro-5-methoxy-2-methylanilino)-8-ethoxy-7-[2-(4-morpholinyl)ethoxy]benzo[g]quinoline-3-carbonitrile]
The IC50 of the first is 22-fold higher: 3740 nM for the first, 170 nM for the second. The second is the more potent here.

`COc1cc(Nc2c(C#N)cnc3cc4cc(OCCn5nccn5)c(OC)cc4cc23)c(Cl)cc1Cl` [Example 158, 4-(2,4-Dichloro-5-methoxyphenylamino)-7-methoxy-8-(2-[1,2,3]triazol-2-yl-ethoxy)benzo[g]quinoline-3-carbonitrile] and `COc1cc(Nc2c(C#N)cnc3cc4cc(OCCn5ccnn5)c(OC)cc4cc23)c(Cl)cc1Cl` [Example 159, 4-(2,4-Dichloro-5-methoxyphenylamino)-7-methoxy-8-(2-[1,2,3]triazol-1-yl-ethoxy)benzo[g]quinoline-3-carbonitrile] are within 1.5-fold of each other in IC50: 67 nM for the first, 73 nM for the second.

`COc1cc(Nc2c(C#N)cnc3cc4cc(OCCN5CCN(C)CC5)c(OC)cc4cc23)c(Cl)cc1F` [Example 211, 4-(2-Chloro-4-fluoro-5-methoxyanilino)-7-methoxy-8-[2-(4-methyl-1-piperazinyl)ethoxy]benzo[g]quinoline-3-carbonitrile] and `COc1cc(Nc2c(C#N)cnc3cc4cc(OC)c(OCCN5CCN(C)CC5)cc4cc23)c(Cl)cc1F` [Example 201, 4-(2-Chloro-4-fluoro-5-methoxyanilino)-8-methoxy-7-[2-(4-methyl-1-piperazinyl)ethoxy]benzo[g]quinoline-3-carbonitrile] are within 1.5-fold of each other in IC50: 128 nM for the first, 175 nM for the second.

First: CCOc1cc2cc3c(Nc4cc(OC)c(Cl)cc4C)c(C#N)cnc3cc2cc1OCCN(CC(N)=O)CC(N)=O [Example 194, 2-(Carbamoylmethyl-{2-[4-(4-chloro-5-methoxy-2-methylphenylamino)-3-cyano-7-ethoxybenzo[g]quinolin-8-yloxy]-ethyl}-amino)-acetamide]
Second: CCOc1cc2cc3c(Nc4cc(OC)c(Cl)cc4C)c(C#N)cnc3cc2cc1OCCN1CCOCC1 [Example 191, 4-(4-Chloro-5-methoxy-2-methylanilino)-7-ethoxy-8-[2-(4-morpholinyl)ethoxy]benzo[g]quinoline-3-carbonitrile]
The IC50 of the first is higher: greater than 10000 nM for the first, 22 nM for the second.

`COc1cc(Nc2c(C#N)cnc3cc4cc(OCCN5CCN(C)CC5)c(OC)cc4cc23)c(Cl)cc1C` [Example 203, 4-(2-Chloro-5-methoxy-4-methylanilino)-7-methoxy-8-[2-(4-methyl-1-piperazinyl)ethoxy]benzo[g]quinoline-3-carbonitrile] showed an IC50 of 71 nM.
